According to PubChem BioAssay AID192 (DTP/NCI, 2004):
Several values for one entry are separate records, joined by “and”; a condition that tells them apart may be missing. Identical values can stand only once. Inconclusive results and toxic doses are left out.

Tested on: BDF1 mice, B16 melanoma ip, median survival T/C
Assay: NCI In Vivo Anticancer Drug Screen. Data for tumor model B16 Melanoma (intraperitoneal) in B6D2F1 (BDF1) mice
Conditions: endpoint: median survival time, higher = longer survival
In short: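 Antitumor activity is assessed in mice bearing a transplanted tumor, with survival or tumor size compared against vehicle-dosed controls and expressed as T/C.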

[1] = dose: 2.5 mg/kg/injection, schedule: Q01DX009 (ip), vehicle: saline with Tween-80
[2] = dose: 5.0 mg/kg/injection, schedule: Q01DX009 (ip), vehicle: saline with Tween-80
[3] = dose: 1.56 mg/kg/injection, schedule: Q01DX009 (ip), vehicle: saline with Tween-80
[4] = dose: 6.25 mg/kg/injection, schedule: Q01DX009 (ip), vehicle: saline with Tween-80
[5] = dose: 12.5 mg/kg/injection, schedule: Q01DX009 (ip), vehicle: Klucel (hydroxypropylcellulose) (HPC)
[6] = dose: 25.0 mg/kg/injection, schedule: Q01DX009 (ip), vehicle: Klucel (hydroxypropylcellulose) (HPC)
[7] = dose: 50.0 mg/kg/injection, schedule: Q01DX009 (ip), vehicle: Klucel (hydroxypropylcellulose) (HPC)
[8] = dose: 100.0 mg/kg/injection, schedule: Q01DX009 (ip), vehicle: saline
[9] = dose: 12.5 mg/kg/injection, schedule: Q01DX009 (ip), vehicle: saline
[10] = dose: 25.0 mg/kg/injection, schedule: Q01DX009 (ip), vehicle: saline
[11] = dose: 50.0 mg/kg/injection, schedule: Q01DX009 (ip), vehicle: saline
[12] = dose: 50.0 mg/kg/injection, schedule: Q01DX009 (ip), vehicle: saline with Tween-80
[13] = dose: 12.5 mg/kg/injection, schedule: Q01DX009 (ip), vehicle: saline with Tween-80
[14] = dose: 25.0 mg/kg/injection, schedule: Q01DX009 (ip), vehicle: saline with Tween-80
[15] = dose: 25.0 mg/kg/injection, schedule: Q04DX003 (ip), vehicle: saline with Tween-80
[16] = dose: 50.0 mg/kg/injection, schedule: Q04DX003 (ip), vehicle: saline with Tween-80
[17] = dose: 100.0 mg/kg/injection, schedule: Q01DX009 (ip), vehicle: saline with Tween-80
[18] = dose: 200.0 mg/kg/injection, schedule: Q01DX009 (ip), vehicle: saline with Tween-80
[19] = dose: 400.0 mg/kg/injection, schedule: Q01DX009 (ip), vehicle: saline with Tween-80
[20] = dose: 100.0 mg/kg/injection, schedule: Q01DX009 (ip), vehicle: Klucel (hydroxypropylcellulose) (HPC)
[21] = dose: 200.0 mg/kg/injection, schedule: Q01DX009 (ip), vehicle: Klucel (hydroxypropylcellulose) (HPC)
[22] = dose: 400.0 mg/kg/injection, schedule: Q01DX009 (ip), vehicle: Klucel (hydroxypropylcellulose) (HPC)

SMILES: COc1ccc(NC(=O)Nc2c(C)cc(C)cc2C)cc1
- T/C (dose: 100.0 mg/kg/injection, schedule: Q01DX009 (ip), vehicle: gum acacia): 96 % of control
- T/C (dose: 200.0 mg/kg/injection, schedule: Q01DX009 (ip), vehicle: gum acacia): 90 % of control
- T/C (dose: 400.0 mg/kg/injection, schedule: Q01DX009 (ip), vehicle: gum acacia): 101 % of control

SMILES: Cn1c(CC#N)c(C[N+](C)(C)C)c2ccccc21
- T/C (dose: 1.25 mg/kg/injection, schedule: Q01DX009 (ip), vehicle: saline with Tween-80): 104 % of control
- T/C [1]: 86 % of control
- T/C [2]: 100 % of control

SMILES: O=C(C=C(C(F)(F)F)C(F)(F)F)c1cccc(S(=O)(=O)F)c1
- T/C [3]: 86 % of control
- T/C (dose: 3.13 mg/kg/injection, schedule: Q01DX009 (ip), vehicle: saline with Tween-80): 93 % of control
- T/C [4]: 89 % of control
- T/C (dose: 8.0 mg/kg/injection, schedule: Q04DX003 (ip), vehicle: saline): 105 % of control
- T/C (dose: 12.0 mg/kg/injection, schedule: Q04DX003 (ip), vehicle: saline): 105 % of control
- T/C (dose: 18.0 mg/kg/injection, schedule: Q04DX003 (ip), vehicle: saline): 110 % of control

SMILES: ClCc1ccc(Oc2ccc(CCl)cc2)cc1
- T/C (dose: 6.25 mg/kg/injection, schedule: Q01DX009 (ip), vehicle: Klucel (hydroxypropylcellulose) (HPC)): 101 % of control
- T/C [5]: 101 % of control and 115 % of control
- T/C [6]: 105 % of control
- T/C [7]: 115 % of control and 124 % of control

SMILES: COC(=O)C(CCl)NC(C)=O (centres undefined)
- T/C [8]: 102 % of control
- T/C (dose: 200.0 mg/kg/injection, schedule: Q01DX009 (ip), vehicle: saline): 102 % of control
- T/C (dose: 400.0 mg/kg/injection, schedule: Q01DX009 (ip), vehicle: saline): 117 % of control

SMILES: CC1C(=O)OCC2=CCN3CCC(OC(=O)C(C)C1(C)O)C23 (centres undefined)
- T/C (dose: 5.0 mg/kg/injection, schedule: Q01DX009 (ip), vehicle: saline): 109 % of control
- T/C (dose: 10.0 mg/kg/injection, schedule: Q01DX009 (ip), vehicle: saline): 111 % of control
- T/C [9]: 123 % of control
- T/C (dose: 20.0 mg/kg/injection, schedule: Q01DX009 (ip), vehicle: saline): 111 % of control
- T/C [10]: 121 % of control
- T/C (dose: 40.0 mg/kg/injection, schedule: Q01DX009 (ip), vehicle: saline): 109 % of control
- T/C [11]: 121 % of control

SMILES: CCC1CN2CCC3(C(=O)Nc4ccccc43)C2CC1/C(=C/OC)C(=O)OC (centres undefined)
- T/C [12]: 95 % of control

SMILES: Clc1ccc2nc(CI)c(CI)nc2c1
- T/C (dose: 0.19 mg/kg/injection, schedule: Q01DX009 (ip), vehicle: saline with Tween-80): 90 % of control
- T/C (dose: 0.39 mg/kg/injection, schedule: Q01DX009 (ip), vehicle: saline with Tween-80): 90 % of control
- T/C (dose: 0.78 mg/kg/injection, schedule: Q01DX009 (ip), vehicle: saline with Tween-80): 100 % of control
- T/C [3]: 104 % of control
- T/C [4]: 102 % of control
- T/C [13]: 97 % of control
- T/C [14]: 89 % of control and 97 % of control
- T/C [15]: 100 % of control
- T/C [16]: 100 % of control

SMILES: Cc1cc(CN)c(C)cc1CN
- T/C (dose: 44.0 mg/kg/injection, schedule: Q01DX009 (ip), vehicle: saline): 91 % of control

SMILES: Cc1cc(Cl)ccc1NS(=O)(=O)c1cccc([N+](=O)[O-])c1
- T/C [17]: 116 % of control
- T/C [18]: 121 % of control
- T/C [19]: 107 % of control

SMILES: CN(C)CC(C(=O)Cc1ccccc1)c1ccccc1 (centres undefined)
- T/C [10]: 93 % of control
- T/C [11]: 88 % of control
- T/C [8]: 97 % of control

SMILES: COc1ccc(/C(C)=N\NC(=O)c2ccccc2)cc1
- T/C (dose: 50.0 mg/kg/injection, schedule: Q04DX003 (ip), vehicle: Klucel (hydroxypropylcellulose) (HPC)): 95 % of control
- T/C (dose: 100.0 mg/kg/injection, schedule: Q04DX003 (ip), vehicle: Klucel (hydroxypropylcellulose) (HPC)): 102 % of control
- T/C (dose: 200.0 mg/kg/injection, schedule: Q04DX003 (ip), vehicle: Klucel (hydroxypropylcellulose) (HPC)): 87 % of control

SMILES: COc1ccc2c(Nc3ccc(NS(C)(=O)=O)cc3)c3ccccc3nc2c1
- T/C (dose: 1.87 mg/kg/injection, schedule: Q01DX009 (ip), vehicle: saline with Tween-80): 163 % of control
- T/C [1]: 150 % of control
- T/C (dose: 3.75 mg/kg/injection, schedule: Q01DX009 (ip), vehicle: saline with Tween-80): 163 % of control
- T/C [2]: 161 % of control
- T/C (dose: 5.3 mg/kg/injection, schedule: Q01DX009 (ip), vehicle: saline with Tween-80): 188 % of control
- T/C (dose: 7.5 mg/kg/injection, schedule: Q01DX009 (ip), vehicle: saline with Tween-80): 193 % of control
- T/C (dose: 8.0 mg/kg/injection, schedule: Q01DX009 (ip), vehicle: saline with Tween-80): 188 % of control
- T/C (dose: 12.0 mg/kg/injection, schedule: Q01DX009 (ip), vehicle: saline with Tween-80): 188 % of control
- T/C [9]: 172 % of control
- T/C (dose: 50.0 mg/kg/injection, schedule: Q01DX001 (ip), vehicle: saline sonified): 175 % of control
- T/C (dose: 100.0 mg/kg/injection, schedule: Q01DX001 (ip), vehicle: saline sonified): 194 % of control

SMILES: CCN(C(=O)COc1ccc(Cl)cc1)c1ccccc1C
- T/C [20]: 96 % of control
- T/C [21]: 106 % of control
- T/C [22]: 96 % of control

SMILES: C#CCSC(=S)NNc1ccccc1
- T/C [17]: 106 % of control
- T/C [18]: 112 % of control

SMILES: CCN(CC)C(=S)SC(=S)N(CC)CC
- T/C [17]: 96 % of control
- T/C [18]: 103 % of control
- T/C [19]: 93 % of control

SMILES: CC(C)CC(NC(=O)C(O)C(N)Cc1ccccc1)C(=O)O (centres undefined)
- T/C (dose: 0.05 mg/kg/injection, schedule: Q01DX009 (oral), vehicle: saline): 97 % of control
- T/C (dose: 0.5 mg/kg/injection, schedule: Q01DX009 (oral), vehicle: saline): 97 % of control
- T/C (dose: 5.0 mg/kg/injection, schedule: Q01DX009 (oral), vehicle: saline): 96 % of control

SMILES: CCCCOB(/C=C/Sc1ccccc1)OCCCC
- T/C (dose: 6.25 mg/kg/injection, schedule: Q01DX009 (ip), vehicle: saline): 101 % of control
- T/C [9]: 119 % of control
- T/C [10]: 100 % of control
- T/C (dose: 35.0 mg/kg/injection, schedule: Q01DX009 (ip), vehicle: saline): 117 % of control
- T/C [7]: 102 % of control
- T/C (dose: 300.0 mg/kg/injection, schedule: Q01DX009 (ip), vehicle: Klucel (hydroxypropylcellulose) (HPC)): 101 % of control

SMILES: COc1cc(C2C(C(=O)OC/C=C/c3ccc4c(c3)OCO4)C(c3cc(OC)c(OC)c(OC)c3)C2C(=O)OC/C=C/c2ccc3c(c2)OCO3)cc(OC)c1OC (centres undefined)
- T/C [12]: 98 % of control
- T/C [17]: 92 % of control
- T/C [18]: 88 % of control
- T/C [19]: 91 % of control

SMILES: CNC(=O)NCc1ccc(C(=O)NC(C)C)cc1
- T/C [6]: 111 % of control
- T/C [7]: 98 % of control
- T/C [20]: 99 % of control
- T/C [21]: 101 % of control
- T/C [22]: 101 % of control

SMILES: CCN(CC)CCCC(C)Nc1c2ccc(Cl)cc2nc2cc(Cl)ccc12 (centres undefined)
- T/C [5]: 106 % of control
- T/C [6]: 106 % of control
- T/C [7]: 122 % of control

SMILES: CCCN(/C=C/C=C/C=[N+](CCC)CCC)CCC
- T/C (dose: 0.03 mg/kg/injection, schedule: Q01DX009 (ip), vehicle: saline): 107 % of control
- T/C (dose: 0.05 mg/kg/injection, schedule: Q01DX009 (ip), vehicle: saline): 109 % of control
- T/C (dose: 0.1 mg/kg/injection, schedule: Q01DX009 (ip), vehicle: saline): 103 % of control
- T/C (dose: 0.2 mg/kg/injection, schedule: Q01DX009 (ip), vehicle: saline): 96 % of control

SMILES: Oc1c(Cl)c(Cl)c(Cl)c(Cl)c1Cl (tested in a mixture with another compound)
- T/C [13]: 107 % of control
- T/C (dose: 12.5 mg/kg/injection, schedule: Q04DX003 (ip), vehicle: saline with Tween-80): 122 % of control
- T/C [14]: 115 % of control
- T/C [15]: 102 % of control
- T/C [12]: 121 % of control
- T/C [16]: 102 % of control

SMILES: COc1ccccc1NC(=O)Nc1ccc(C(=O)OCC(C)C)cc1
- T/C [12]: 100 % of control
- T/C [17]: 94 % of control
- T/C [18]: 95 % of control
